Experimental findings from patent US10590140B2, “Tetrahydropyrimidodiazepine and dihydropyridodiazepine compounds for treating pain and pain related conditions” (ESTEVE PHARMACEUTICALS, S.A., priority 2016, dated 2020) are described below.

One may read the Ki as the dissociation constant of the complex between target and ligand, obtained from inhibition or displacement.

Sequence of human α2δ-1 subunit of Cav2.2 calcium channel (P54289 25-1103): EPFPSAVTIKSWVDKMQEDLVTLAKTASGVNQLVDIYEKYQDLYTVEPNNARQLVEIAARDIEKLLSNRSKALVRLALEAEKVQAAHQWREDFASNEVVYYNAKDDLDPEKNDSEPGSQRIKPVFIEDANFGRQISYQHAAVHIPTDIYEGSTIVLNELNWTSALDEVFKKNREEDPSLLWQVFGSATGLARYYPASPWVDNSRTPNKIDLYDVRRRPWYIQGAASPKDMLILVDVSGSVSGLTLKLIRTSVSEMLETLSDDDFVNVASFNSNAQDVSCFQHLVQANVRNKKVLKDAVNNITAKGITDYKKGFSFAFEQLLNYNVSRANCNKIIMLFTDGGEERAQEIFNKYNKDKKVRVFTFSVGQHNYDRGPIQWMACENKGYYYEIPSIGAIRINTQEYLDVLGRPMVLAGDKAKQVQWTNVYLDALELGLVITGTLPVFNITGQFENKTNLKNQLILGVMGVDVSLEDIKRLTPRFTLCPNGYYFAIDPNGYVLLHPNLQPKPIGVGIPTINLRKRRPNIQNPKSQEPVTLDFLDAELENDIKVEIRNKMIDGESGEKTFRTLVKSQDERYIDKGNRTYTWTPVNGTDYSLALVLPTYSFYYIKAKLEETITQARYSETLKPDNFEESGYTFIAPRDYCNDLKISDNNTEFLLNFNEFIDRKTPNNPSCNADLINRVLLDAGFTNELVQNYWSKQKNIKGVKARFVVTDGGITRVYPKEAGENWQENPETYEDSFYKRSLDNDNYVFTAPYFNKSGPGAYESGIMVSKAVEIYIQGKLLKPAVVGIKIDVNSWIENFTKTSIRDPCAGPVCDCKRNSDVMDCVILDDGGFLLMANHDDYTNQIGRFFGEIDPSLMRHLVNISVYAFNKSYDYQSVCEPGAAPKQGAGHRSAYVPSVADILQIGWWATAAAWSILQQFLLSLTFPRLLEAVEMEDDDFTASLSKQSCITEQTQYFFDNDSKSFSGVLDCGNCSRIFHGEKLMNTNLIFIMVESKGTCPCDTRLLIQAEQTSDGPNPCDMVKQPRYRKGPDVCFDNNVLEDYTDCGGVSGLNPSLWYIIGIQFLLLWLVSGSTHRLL

The test has as its target human α2δ-1 subunit of Cav2.2 calcium channel (Homo sapiens (Human), UniProt P54289). Briefly: Binding assay to human α2δ-1 subunit of Cav2.2 calcium channel ([3H]-Gabapentin). The settings on record: binding to α2δ-1, [3H]-Gabapentin; read-out: Ki (nM) α2δ-1. In a few lines: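 [3H]-gabapentin binding, 60 min at 27° C; nonspecific binding defined with 10 μM pregabalin. Terminated by filtration on PEI-presoaked GF/C filters, ice-cold 50 mM Tris-HCl pH 7.4 washes, then scintillation counting.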
As for `CN(CCC(Oc1cccc(N2CCN(C)c3cc(Cl)ncc3C2=O)c1)c1cccs1)C(=O)OCC[Si](C)(C)C` (centres unmarked) [Example 297, 2-(trimethylsilyl)ethyl (3-(3-(8-chloro-1-methyl-5-oxo-1,2,3,5-tetrahydro-4H-pyrido[4,3-e][1,4]diazepin-4-yl)phenoxy)-3-(thiophen-2-yl)propyl)(methyl) carbamate], the Ki was > 3000 nM.

As to `CN(CC[C@H](Oc1cccc(N2CCN(C)c3cc(Cl)ncc3C2=O)c1)c1cccs1)C(=O)OCC[Si](C)(C)C` [Example 298, 2-(trimethylsilyl)ethyl (S)-(3-(3-(8-chloro-1-methyl-5-oxo-1,2,3,5-tetrahydro-4H-pyrido[4,3-e][1,4]diazepin-4-yl)phenoxy)-3-(thiophen-2-yl)propyl)(methyl) carbamate], the inhibition constant Ki was > 3000 nM.

Regarding `CN(CC[C@H](Oc1ccc(CN2CCN(C)c3cc(Cl)ncc3C2=O)cc1)c1cccs1)C(=O)OCC[Si](C)(C)C` [Example 299, 2-(trimethylsilyl)ethyl (S)-(3-(4-((8-chloro-1-methyl-5-oxo-1,2,3,5-tetrahydro-4H-pyrido[4,3-e][1,4]diazepin-4-yl)methyl)phenoxy)-3-(thiophen-2-yl)propyl)(methyl) carbamate], the Ki was > 3000 nM.

`CN(CCC(OCc1cccc(N2CCN(C)c3cc(Cl)ncc3C2=O)c1)c1ccccc1)C(=O)OC(C)(C)C` (centres unmarked) [Example 300, tert-butyl (3-((3-(8-chloro-1-methyl-5-oxo-1,2,3,5-tetrahydro-4H-pyrido[4,3-e][1,4]diazepin-4-yl)benzyl)oxy)-3-phenylpropyl)(methyl) carbamate]: the inhibition constant (Ki) is > 3000 nM.

As to `Cc1cc2c(cn1)C(=O)N(Cc1ccc(O[C@@H](CCN(C)C(=O)OCC[Si](C)(C)C)c3cccs3)cc1)CCN2C` [Example 301, 2-(trimethylsilyl)ethyl (S)-(3-(4-((1,8-dimethyl-5-oxo-1,2,3,5-tetrahydro-4H-pyrido[4,3-e][1,4]diazepin-4-yl)methyl)phenoxy)-3-(thiophen-2-yl)propyl)(methyl) carbamate], the Ki was > 3000 nM.

Take `Cc1cc2c(cn1)C(=O)N(c1cccc(OC(CCN(C)C(=O)OCC[Si](C)(C)C)c3cccs3)c1)CCN2C` (centres unmarked) [Example 302, 2-(trimethylsilyl)ethyl (3-(3-(1,8-dimethyl-5-oxo-1,2,3,5-tetrahydro-4H-pyrido[4,3-e][1,4]diazepin-4-yl)phenoxy)-3-(thiophen-2-yl)propyl) (methyl)carbamate]: the Ki is > 3000 nM.

`Cc1cc2c(cn1)C(=O)N(c1cccc(COC(CCN(C)C(=O)OC(C)(C)C)c3ccccc3)c1)CCN2C` (centres unmarked) [Example 303, tert-butyl (3-((3-(1,8-dimethyl-5-oxo-1,2,3,5-tetrahydro-4H-pyrido[4,3-e][1,4]diazepin-4-yl)benzyl)oxy)-3-phenylpropyl)(methyl) carbamate]: the Ki is > 3000 nM.

On to `CNCCC(OCc1cccc(N2CCN(C)c3cc(C)ncc3C2=O)c1)c1ccccc1` (centres unmarked) [Example 306, 1,8-dimethyl-4-(3-((3-(methylamino)-1-phenylpropoxy)methyl)phenyl)-1,2,3,4-tetrahydro-5H-pyrido[4,3-e] [1,4]diazepin-5-one], for which the Ki was 500 to 3000 nM.

`CCNc1ncc2c(n1)N(C)CCN(c1cccc(C(=O)OC)c1)C2=O` [Example 309, methyl 3-(2-(ethylamino)-9-methyl-5-oxo-5,7,8,9-tetrahydro-6H-pyrimido[4,5-e][1,4]diazepin-6-yl)benzoate]: the Ki was in the range of 100 to 500 nM.

Turning to `CCNc1ncc2c(n1)N(C)CCN(c1cccc(Br)c1)C2=O` [Example 311, 6-(3-bromophenyl)-2-(ethylamino)-9-methyl-6,7,8,9-tetrahydro-5H-pyrimido[4,5-e][1,4]diazepin-5-one], the Ki lay within 500 to 3000 nM.

Regarding `CCNc1ncc2c(n1)N(C)CCN(c1cccc(N3CCC(c4ccccc4)(N(C)C)CC3)c1)C2=O` [Example 312, 6-(3-(4-(dimethylamino)-4-phenylpiperidin-1-yl)phenyl)-2-(ethylamino)-9-methyl-6,7,8,9-tetrahydro-5H-pyrimido[4,5-e][1,4]diazepin-5-one], the Ki lay in the range of 500 to 3000 nM.

`CCNc1ncc2c(n1)N(C)CCN(c1cccc(C(=O)O)c1)C2=O` [Example 313, 3-(2-(ethylamino)-9-methyl-5-oxo-5,7,8,9-tetrahydro-6H-pyrimido[4,5-e][1,4]diazepin-6-yl)benzoic acid]: the inhibition constant Ki was > 3000 nM.

In the case of `CCNc1ncc2c(n1)N(C)CCN(c1cccc(C(=O)N3CCC(c4ccccc4)(N(C)C)CC3)c1)C2=O` [Example 314, 6-(3-(4-(dimethylamino)-4-phenylpiperidine-1-carbonyl)phenyl)-2-(ethylamino)-9-methyl-6,7,8,9-tetrahydro-5H-pyrimido[4,5-e][1,4]diazepin-5-one], the Ki is > 3000 nM.

Consider `CNCCC(OCc1cccc(N2CCN(C)c3ccncc3C2=O)c1)c1ccccc1` (centres unmarked) [Example 317, 1-methyl-4-(3-((3-(methylamino)-1-phenylpropoxy)methyl)phenyl)-1,2,3,4-tetrahydro-5H-pyrido[4,3-e][1,4]diazepin-5-one], for which the inhibitory constant (Ki) lay within 500 to 3000 nM.

Consider `CNCCC(OCc1ccccc1N1CCN(C)c2nc(SC)ncc2C1=O)c1ccccc1` (centres unmarked) [Example 318, 9-methyl-6-(2-((3-(methylamino)-1-phenylpropoxy)methyl)phenyl)-2-(methylthio)-6,7,8,9-tetrahydro-5H-pyrimido[4,5-e][1,4]diazepin-5-one], for which the inhibitory constant (Ki) was > 3000 nM.

Turning to `CNCC(Oc1ccccc1N1CCN(C)c2nc(SC)ncc2C1=O)c1ccccc1` (centres unmarked) [Example 319, 9-methyl-6-(2-(2-(methylamino)-1-phenylethoxy)phenyl)-2-(methylthio)-6,7,8,9-tetrahydro-5H-pyrimido[4,5-e][1,4]diazepin-5-one], the inhibition constant (Ki) was > 3000 nM.

For the compound `CNCC(OCc1ccccc1N1CCN(C)c2nc(SC)ncc2C1=O)c1ccccc1` (centres unmarked) [Example 320, 9-methyl-6-(2-((2-(methylamino)-1-phenylethoxy)methyl)phenyl)-2-(methylthio)-6,7,8,9-tetrahydro-5H-pyrimido[4,5-e][1,4]diazepin-5-one], the inhibition constant (Ki) is > 3000 nM.

As for `CNCC[C@H](OCc1cccc(N2CCN(C)c3nc(N)ncc3C2=O)c1)c1ccccc1` [Example 332, (S)-2-amino-9-methyl-6-(3-((3-(methylamino)-1-phenylpropoxy)methyl)phenyl)-6,7,8,9-tetrahydro-5H-pyrimido[4,5-e][1,4]diazepin-5-one], the Ki was > 3000 nM.

Turning to `CCNc1ncc2c(n1)N(C)CCN(c1ccccc1COC(CCNC)c1ccccc1)C2=O` (centres unmarked) [Example 337, 2-(ethylamino)-9-methyl-6-(2-((3-(methylamino)-1-phenylpropoxy)methyl)phenyl)-6,7,8,9-tetrahydro-5H-pyrimido[4,5-e][1,4]diazepin-5-one], the Ki was > 3000 nM.

Turning to `CCNc1ncc2c(n1)N(C)CCN(c1ccccc1OC(CNC)c1ccccc1)C2=O` (centres unmarked) [Example 338, 2-(ethylamino)-9-methyl-6-(2-(2-(methylamino)-1-phenylethoxy)phenyl)-6,7,8,9-tetrahydro-5H-pyrimido[4,5-e][1,4]diazepin-5-one], the inhibition constant (Ki) is > 3000 nM.

Take `CCNc1ncc2c(n1)N(C)CCN(c1ccccc1COC(CNC)c1ccccc1)C2=O` (centres unmarked) [Example 339, 2-(ethylamino)-9-methyl-6-(2-((2-(methylamino)-1-phenylethoxy)methyl)phenyl)-6,7,8,9-tetrahydro-5H-pyrimido[4,5-e][1,4]diazepin-5-one]: the Ki is > 3000 nM.

Regarding `CCNc1ncc2c(n1)N(C)CCN(c1cccc(COC(CCNCCF)c3cccs3)c1)C2=O` (centres unmarked) [Example 345, 2-(ethylamino)-6-(3-((3-((2-fluoroethyl)amino)-1-(thiophen-2-yl)propoxy)methyl)phenyl)-9-methyl-6,7,8,9-tetrahydro-5H-pyrimido[4,5-e][1,4]diazepin-5-one], the inhibition constant Ki was in the range of 100 to 500 nM.

As to `CNCCC(Oc1ccc(N2CCN(C)c3ncncc3C2=O)cc1)c1ccccc1` (centres unmarked) [Example 361, 9-methyl-6-(4-(3-(methylamino)-1-phenylpropoxy)phenyl)-6,7,8,9-tetrahydro-5H-pyrimido[4,5-e][1,4]diazepin-5-one], the Ki is > 3000 nM.

For `CNCC(Oc1ccccc1N1CCN(C)c2ncncc2C1=O)c1ccccc1` (centres unmarked) [Example 362, 9-methyl-6-(2-(2-(methylamino)-1-phenylethoxy)phenyl)-6,7,8,9-tetrahydro-5H-pyrimido[4,5-e][1,4]diazepin-5-one], the Ki is > 3000 nM.

Take `CNCCC(OCc1ccccc1CN1CCN(C)c2nc(SC)ncc2C1=O)c1ccccc1` (centres unmarked) [Example 365, 9-methyl-6-(2-((3-(methylamino)-1-phenylpropoxy)methyl)benzyl)-2-(methylthio)-6,7,8,9-tetrahydro-5H-pyrimido[4,5-e][1,4]diazepin-5-one]: the Ki is > 3000 nM.

In the case of `CNCCC(Oc1ccccc1CN1CCN(C)c2nc(SC)ncc2C1=O)c1ccccc1` (centres unmarked) [Example 370, 9-methyl-6-(2-(3-(methylamino)-1-phenylpropoxy)benzyl)-2-(methylthio)-6,7,8,9-tetrahydro-5H-pyrimido[4,5-e][1,4]diazepin-5-one], the Ki was > 3000 nM.

`CNCC(Oc1ccccc1CN1CCN(C)c2nc(SC)ncc2C1=O)c1ccccc1` (centres unmarked) [Example 371, 9-methyl-6-(2-(2-(methylamino)-1-phenylethoxy)benzyl)-2-(methylthio)-6,7,8,9-tetrahydro-5H-pyrimido[4,5-e][1,4]diazepin-5-one]: the inhibitory constant (Ki) was > 3000 nM.

Consider `CNCC(OCc1ccccc1CN1CCN(C)c2nc(SC)ncc2C1=O)c1ccccc1` (centres unmarked) [Example 373, 9-methyl-6-(2-((2-(methylamino)-1-phenylethoxy)methyl)benzyl)-2-(methylthio)-6,7,8,9-tetrahydro-5H-pyrimido[4,5-e][1,4]diazepin-5-one], for which the Ki was > 3000 nM.

As to `CNCCC(Oc1ccc(CN2CCN(C)c3nc(OC)ncc3C2=O)cc1)c1ccccc1F` (centres unmarked) [Example 376, 6-(4-(1-(2-fluorophenyl)-3-(methylamino)propoxy)benzyl)-2-methoxy-9-methyl-6,7,8,9-tetrahydro-5H-pyrimido[4,5-e][1,4]diazepin-5-one], the inhibition constant (Ki) was 500 to 3000 nM.
